A word on the IC50: it is the midpoint of a concentration-inhibition curve. For orientation: melting point means the temperature of the solid-liquid transition.

The values that follow come from patent publication US7741337B2, “Azonafide derivatives, methods for their production and pharmaceutical compositions therefrom” (Unibioscreen S.A., priority 2005, dated 2010).

The test system of data set [1] is human cancer cell lines Hs683, U-373MG, HCT-15, LoVo, A549 and MCF-7. The experiment in a line: MTT test, effect on overall cell growth (mean of six cell lines, examples 3 to 26). The class given is cell-based. Particulars: mean of six cell lines Hs683, U-373MG, A549, MCF-7, 72 hours incubation, range of molar concentrations resulting in 50% inhibition of overall tumor cells growth. The protocol: (§1) MTT tests were performed in order to rapidly, i.e. within 5 days, measure the effect of azonafide derivatives of this invention on the overall cell growth. The test measures the number of metabolically active living cells that are able to transform the yellow product 3-(4,5-dimethylthiazol-2-yl)-2,5-diphenyl tetrazolium bromide (herein referred as MTT) into the blue product formazan dye by mitochondrial reduction. The amount of formazan obtained at the end of the experiment, measured by means of a spectrophotometer, is directly proportional to the number of living cells. Optical density determination thus enables a quantitative measurement of the effect of the investigated compounds as compared to the control condition (untreated cells) and/or to other reference compounds.
(§2) Height human cancer cell lines described in table 1 were used in the following MTT tests. These cell lines cover six histological cancer types, being prostate, glioma, pancreas, colon, lung and breast cancers. Cells were allowed to grow in 96-well micro-wells with a flat bottom with an amount of 100 μl of cell suspension per well with 1,000 to 4,000 cells/well depending on the cell type used. Each cell line was seeded in a well known MEM 5% serum culture medium.
(§3) The detailed experimental procedure was as following: after a 24-hour period of incubation at 37° C., the culture medium was replaced by 100 μl of fresh medium in which the compound to be tested was dissolved at the following molar concentrations: 10^−9 M, 5.10^−9 M, 10^−8 M, 5.10^−8 M, 10^−7 M, 5.10^−7 M, 10^−6 M, 5.10^−6 M and 10^−5 M. Each experiment was repeated 6 times.
(§4) After 72 hours of incubation at 37° C. with (experimental conditions) or without (control condition) the compound to be tested, the medium was replaced by 100 μl MTT dissolved in RPMI at a concentration of 1 mg/ml. The micro-wells were subsequently incubated during 3 hours at 37° C. and centrifuged at 400 g during 10 minutes. MTT was removed and formazan crystals formed were dissolved in 100 μl DMSO. The micro-wells were shaken for 5 minutes and read on a spectrophotometer at wavelengths of 570 nm (maximum formazan absorbance) and 630 nm (back-ground noise).
(§5) For each experimental condition, the mean optical density was calculated, as well as the percentage of remaining living cells in comparison with the control.
(§6) IC50 values for compounds of examples 3 to 26 were obtained on cell lines Hs683, U-373MG, HCT-15, LoVo, A549 and MCF-7 described in Table 1. IC50 values for compounds from examples 27 to 45 were obtained on cell lines PC3, U-373MG, BxPC3, LoVo, A549 and MCF-7 described in Table 1.
For orientation: Tetrazolium assays rely on reduction of a dye to a coloured formazan, in cell work by metabolically active cells.

The subject of data set [2] is PC3 (prostate cancer) cells. The experiment in a line: Effect on cell migration, PC3. The class given is cell-based. Particulars: Homo sapiens, 22 hours on the 25% of most motile cells, p value in same cell, read-out: Maximum effects (cell migration); for Emax at 0.01 µM: at 10^−8 M; for Emax at 1 µM: at 10^−6 M. Here is the method:
(§7) Cells of different cancer lines, i.e. U-373 MG (Glioma cancer), PC3 (prostate cancer and A549 (Lung cancer) were seeded on culture flask 48 hours before the migration experiment. On the test day, cells were treated with or without the azonafide derivatives mentioned in table 3 in closed Falcon dishes containing a buffered medium at a controlled temperature (37.0±0.1° C.) for 12 or 22 hours, as noted in the right column of table 3. The azonafide derivatives were used at three non-cytotoxic concentrations (10^−6 M, 10^−7, 10^−8 M). Migration of the cells was observed by means of a CCD-camera mounted on a phase-contrast microscope. Statistical analysis of the migration, with the non-parametric Mann-Whitney test, was established for 25% and 50% of the most motile cells and for the entire cell population.

In data set [3] the test system is U-373 MG, PC-3 and/or A549 cancer cells. Description: Effect on cell migration, summary of table 3. The class given is cell-based, human. The note with it: for migration level of cancer cells: U-373 MG, PC-3 and/or A549 cancer cells at the non-cytotoxic concentrations of this study; for cell migration activity compared with the closest compounds known in the art: comparison drawn from table 3. Here is the method: as §7

The next data set concerns A549 (Lung cancer) cells. The experiment in a line: Effect on cell migration, A549. Particulars: Homo sapiens, p value in same cell, read-out: Maximum effects (cell migration); for Emax at 0.01 µM: 22 hours on the 25% of most motile cells, at 10^−8 M. It is filed as cell-based. Here is the method: as §7
For data set [4], the system named is U-373 MG (Glioma cancer) cells. The experiment in a line: Effect on cell migration, U-373MG. The class given is cell-based. The note with it: Homo sapiens, U373 MG, 22 hours on the 25% of most motile cells, p value in same cell, read-out: Maximum effects (cell migration); for Emax at 1 µM: at 10^−6 M. Here is the method: as §7
The test system of data set [5] is human cancer cell lines PC3, U-373MG, BxPC3, LoVo, A549 and MCF-7. Description: MTT test, effect on overall cell growth (mean of six cell lines, examples 27 to 45). The class given is cell-based. The note with it: mean of six cell lines PC3, U-373MG, A549, MCF-7, 72 hours incubation, range of molar concentrations resulting in 50% inhibition of overall tumor cells growth. The protocol: as §1, §2, §3, §4, §5, §6

Data set [6] has as its system human tumour xenografts with colon, lung and mammary cancers. The note with it: mice with colon; cited from earlier work.
The conditions of data set [7]: patients receiving five daily doses of the drug; cited from earlier work.
A further data set concerns leukemia models. Particulars: mice; cited from earlier work.
For data set [8], the system named is primary human solid tumours. Particulars: in vitro; Ajani et al. Invest New Drugs (1988) 6:79-83; cited from earlier work.
For another data set, the system named is tumors. Particulars: mice; compared with amonafide; U.S. Pat. No. 5,635,506; cited from earlier work.
The conditions of data set [9]: compared with amonafide; U.S. Pat. No. 5,635,506; cited from earlier work.
Data set [10] concerns multidrug resistant tumors. The note with it: in vitro; U.S. Pat. No. 5,635,506; cited from earlier work.
In data set [11] the test system is human Myeloma 8226/DOX 40 cell line. Particulars: U.S. Pat. No. 5,635,506; cited from earlier work.

Consider `CN(C)CCN1C(=O)c2cccc3cc4c(N=Cc5cc(O)ccc5O)cccc4c(c23)C1=O` (stereo in doubt) [Example 6, 8-{[(1Z)-(2,5-dihydroxyphenyl)methylidene]amino}-2-[2-(dimethylamino)ethyl]-1H-dibenzo[de,h]isoquinoline-1,3(2H)-dione], for which the melting point was 205 °C. In data set [1], this compound came in with an IC50 of 1 to 5 µM. In addition, in data set [2], the Emax at 0.01 µM is -24%. Besides, in data set [3], the “migration level of cancer cells” value is on record as “induced a decrease in the migration level” and the “cell migration activity compared with the closest compounds known in the art” value is “significantly greater cell migration activity than the closest compounds known in the art, or similar cell migration activity at significantly lower concentrations”. The Emax at 0.01 µM in the data set with A549 (Lung cancer) cells is -29%.
In turn, `CN(C)CCN1C(=O)c2cccc3cc4cccc(/N=C\c5cc(O)ccc5O)c4c(c23)C1=O` [Example 5, 11-{[(1Z)-(2,5-dihydroxyphenyl)methylidene}amino]-2-[2-(dimethylamino)ethyl]-1H-dibenzo[de,h]isoquinoline-1,3(2H)-dione] registered a melting point of 225 °C. Moreover, the IC50 in data set [1] is more than 10 µM. For the same compound, in [3], the “migration level of cancer cells” value is reported as “induced a decrease in the migration level” and the “cell migration activity compared with the closest compounds known in the art” value is listed as “significantly greater cell migration activity than the closest compounds known in the art, or similar cell migration activity at significantly lower concentrations”. Also, the Emax at 0.01 µM in the data set on A549 (Lung cancer) cells was -47%.
For `CN(C)CCN1C(=O)c2cccc3cc4cccc(/N=C\c5ccc6c(c5)OCO6)c4c(c23)C1=O` [Example 7, 11-{[(1Z)-1,3-benzodioxol-5-ylmethylidene]amino}-2-[2-(dimethylamino)ethyl]-1H-dibenzo[de,h]isoquinoline-1,3(2H)-dione], the melting point amounted to 198 °C. The IC50 in data set [1] is more than 10 µM. Moreover, the “migration level of cancer cells” value in [3] is “induced a decrease in the migration level”. Moreover, the Emax at 1 µM in the data set on A549 (Lung cancer) cells (22 hours on the 100% of cells, at 10^−6 M) was -20%.
For `CN(C)CCN1C(=O)c2cccc3cc4cccc(NC(=O)Cc5ccc(Cl)cc5)c4c(c23)C1=O` [Example 11, 2-(4-chlorophenyl)-N-{2-[2-(dimethylamino)ethyl]-1,3-dioxo-2,3-dihydro-1H-dibenzo[de,h]isoquinolin-11-yl}acetamide], the IC50 in data set [1] is more than 10 µM. Further, the figures for the Emax at 1 µM in data set [2] and in data set [4] were -37% and -18%, respectively. In data set [2] (at 10^−7 M), the Emax at 0.1 µM was -27%. Further, the “migration level of cancer cells” value in data set [3] is on record as “induced a decrease in the migration level”. In addition, in data set [3], the “cell migration activity compared with the closest compounds known in the art” value is given as “significantly greater cell migration activity than the closest compounds known in the art, or similar cell migration activity at significantly lower concentrations”.
On to `CCCCCNC(=O)Nc1cccc2cc3cccc4c3c(c12)C(=O)N(CCN(C)C)C4=O` [Example 13, 1-{2-[2-(dimethylamino)ethyl]-1,3-dioxo-2,3-dihydro-1H-dibenzo[de,h]isoquinolin-11-yl}-3-pentylurea], for which the IC50 in [1] fell in the range of 5 to 10 µM. In addition, the Emax at 0.01 µM in data set [2] was -43%. Besides, in data set [3], the “migration level of cancer cells” value is reported as “induced a decrease in the migration level” and the “cell migration activity compared with the closest compounds known in the art” value was “significantly greater cell migration activity than the closest compounds known in the art, or similar cell migration activity at significantly lower concentrations”. In addition, the Emax at 0.1 µM in data set [4] (at 10^−7 M) was -24%.
Take `CN(C)CCN1C(=O)c2cccc3cc4cccc(NC(=S)Nc5ccc(OC(F)(F)F)cc5)c4c(c23)C1=O` [Example 31, 1-{2-[2-(dimethylamino)ethyl]-1,3-dioxo-2,3-dihydro-1H-dibenzo[de,h]isoquinolin-11-yl}-3-[4-(trifluoromethoxy)phenyl]thiourea]: in data set [2], the Emax at 1 µM was -30%. For the same compound, in data set [5], the IC50 is more than 10 µM. Also, in data set [3], the “migration level of cancer cells” value was “induced a decrease in the migration level” and the “cell migration activity compared with the closest compounds known in the art” value is “significantly greater cell migration activity than the closest compounds known in the art, or similar cell migration activity at significantly lower concentrations”. The Emax at 1 µM in data set [4] is -60%.
Take `CN(C)CCN1C(=O)c2cccc3cc(N)cc(c23)C1=O` [amonafide]: the “activity in human tumour xenografts” value in [6] is “no activity”. For the same compound, the myelotoxicity entry in data set [7] is given as “substantial myelotoxicity leading to some deaths”. Moreover, the “activity in leukemia models” value in the data set with leukemia models is reported as “only moderate activity”. In data set [8], the “activity in primary human solid tumours” value is “poor activity”.
With `CN(C)CCN1C(=O)c2cccc3cc4ccccc4c(c23)C1=O` [azonafide, 2-[2′-(dimethylamino)ethyl]-1,2-dihydro-3H-dibenz(deh)isoquinoline-1,3-dione], the “appearance of tumors and tumor growth” value with tumors was “delay the appearance of tumors and to reduce tumor growth in mice with more efficiency than amonafide”. Also, the cardiotoxicity result in data set [9] is “higher cardiotoxicity than amonafide”. Also, the “anti-tumor activity on multidrug resistant tumors” value in data set [10] is given as “showed anti-tumor activity”. The cross resistance result in [11] is “possible three-fold cross resistance”.
